The source of these data is patent US10456405B2, “Nitric oxide-releasing prodrug molecule of substituted quinazolines” (ZHEJIANG HUAHAI PHARMACEUTICAL CO., LTD, priority 2015, dated 2019).

Series [1] concerns C57BL/6 mice. Kind of series: Serum NO level in C57 mice after oral gavage. The series is classed as in vivo. The conditions noted are these: oral gavage 150 mg/kg (positive drug 5 mg/kg), FIG. 1. An excerpt:
Experimental method: 60 eight-week-old C57BL/6 mice (level: SPF; gender: male; source: Shanghai SLAC Laboratory Animal Co., Ltd.) were selected. […] were selected as the blank control. 12 mice were used as the positive drug control (isosorbide mononitrate). 12 mice were used as […] administration group. The other 32 mice were randomly divided into 4 groups, 8 mice per group, which are […] administration group, […] administration group, […] administration group, and […] administration group, respectively. The tested compounds of the positive drug control group and each administration group were dissolved in DMSO and then PEG400 was added thereto. The mixture was shaken and mixed thoroughly. At last, 10% of HP-β-CD was added. The mixture was shaken and mixed thoroughly. The ratio of each solvent was DMSO: PEG400:10% of HP-β-CD=5:67.5:27.5. The administration groups were administered by oral gavage at the dose of 150 mg/kg. The positive drug control group was administered at the dose of 5 mg/kg. The mice in each group were sacrificed by inhaling excess CO2 at 10 min, 30 min, 60 min, 120 min, 180 min, and 240 min after administration. The blood was collected into a 1.5 mL centrifuge tube, standing at room temperature for more than 30 min, and then centrifuged (3000 rpm, 10 min). The supernatant serum was aspirated, and stored at -80° C. for testing. After the blood was collected, the heart was cut with the thoracic aorta. Three parts of the heart were weighed and placed into cryovials, rapidly frozen in liquid nitrogen, and cryopreserved at -80° C. for testing. The aorta and aortic arch were weighed, rapidly frozen in liquid nitrogen, and cryopreserved at -80° C. for testing. The content of NO in the serum of C57BL/6 mice was determined by using the total NO test kit (Beyotime).

For series [2] the following is noted: rat, in vivo.
Method: Experimental method: Intravenous injection solutions (the administration concentrations of the tested compounds were 1 mg/kg) and oral gastric perfusates (the administration concentrations of the test compounds were 5 mg/kg) of the test compounds were prepared, and intravenously and orally administered to three SD rats, respectively. The concentrations of the whole blood for H130 at 0.083 h, 0.25 h, 0.5 h, 1 h, 2 h, 4 h, 8 h, and 24 h after administration were determined by LC-MS/MS, respectively. The pharmacokinetic parameters were compared by a drug-time curve. Sample pretreatment: 150 μL of the whole blood to be tested was aspirated accurately. 600 μL of internal standard solution (diluted to 0.5 μg/mL with methanol) was added, sufficiently mixed by a vortex mixer, and centrifuged at 13000 r/min for 20 min at 4° C. 3 μL of the supernatant was taken into a sample vial.
Chromatographic conditions: C18 reversed-phase chromatographic column; gradient elution with mobile phase A: water/acetonitrile (v:v=95:5) with 0.025% of formic acid and 1 mM of ammonium acetate added thereto, and mobile phase B: acetonitrile/water (v:v=95:5) with 0.025% of formic acid and 1 mM of ammonium acetate added thereto.
Series [3] relates to ApoA-I mRNA. Kind of series: Regulation of ApoA-I mRNA in HepG2 cells (real-time PCR). The series is classed as cell-based. Details: key: Active: When 100 μM of the tested compound allowed ApoA-I mRNA in HepG2 cells to increase more than 15%, then the test compound was known as an ApoA active compound. Particulars: 100 μM, 48 h, relative to DMSO control. On the procedure: Experiment 5. Regulation of the Tested Compounds on ApoA-I mRNA HepG2 cells were cultured for 24 h in a 24-well plate with 400 μl of MEM medium containing 0.5% (v/v) of fetal bovine serum. Then each of the tested compounds (100 μM) and the positive control RVX-208 (100 μM) were added. The cells were cultured for another 48 h. The medium was aspirated out. After washing with 200 μl of PBS, 85 μl of cell lysis solution was added into the cells in each well. The cells were incubated at room temperature for 5 to 10 min to be completely dissolved and detached. The mRNA was extracted from the cells with a kit. The extracted mRNA were used for a real-time fluorescence quantitative PCR detection with RNA Fluorescence (RiboGreen) Quantitation Assay Kit and ApoA-I mRNA Primer-Probe Mixture from the company of Applied Biosystems.
After obtaining the Ct values, the induction fold of each test compound relative to DMSO control was calculated. The induction fold was used to reflect the ability of regulating ApoA-I mRNA for the tested compounds. When 100 μM of the tested compound allowed ApoA-I mRNA in HepG2 cells to increase more than 15%, then the test compound was known as an ApoA active compound.
A general note: Real-time PCR tracks product formation cycle by cycle.

The nature of series [4]: Release of nitric oxide in vitro (Griess reagent, nitrite). The conditions noted are these: 10^−4 mol/L tested substance, phosphate buffer pH 7.4, cysteine 5 mmol/L, 37° C., 1 h; as nitrite. In outline: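 Compounds at final 10^−4 mol/L in pH 7.4 phosphate buffer with 5 mmol/L cysteine, incubated at 37 °C. At 1 h, nitrite measured with Griess reagent (A540) against a nitrite standard curve; NO release expressed as nitrite.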
Background: Griess reagent forms a coloured azo dye with nitrite.

The subject of series [5] is apoE−/− mice. Description: apoE−/− mouse atherosclerosis model, high-fat diet 10 weeks. The series is classed as in vivo. Particulars: for Aorta eNOS / ApoA1 / Heart eNOS / Serum NO / Serum eNOS: blank administration group = 100, 150 mg/kg twice a day, 10 weeks; for HDL-C / LDL-C / TC: serum, high-fat diet 10 weeks, intragastric 150 mg/kg twice a day. An excerpt: Experimental method: 36 eight-week-old male apoE-/- mice were selected and randomly divided into a blank administration group, an […] administration group, an […] administration group, an […] administration group, an […] administration group, and an […] administration group, 6 mice per group. The mice in each group were fed with high-fat diet for 10 weeks. At the beginning of the high-fat feeding, the mice in each group were administrated. Each tested compound was intragastric administered at the dose of 150 mg/kg twice a day. The blank administration group was given corresponding dose of saline. […] After the blood was taken, the serum, heart, and aorta were isolated. The levels of total cholesterol (TC), high density lipoprotein cholesterol (HDL-C), and low density lipoprotein cholesterol (LDL-C) in the serum of the mice in each group were measured by automatic biochemical analyzer. The ApoA1 expression level was detected with an ApoA1 kit. The content of NO in the serum of the mice was determined with a total NO test kit (Beyotime). The NOS activities of the heart, aorta, and serum were determined with an NOS test kit (Beyotime). The content of eNOS was calculated by the difference between the measured values determined before and after adding eNOS inhibitor L-NAME (Beyotime).

Read-outs that look alike come from different tables or passages of the source.

For the compound “2-[4-(5,7-dimethoxy-4-oxo-3,4-dihydro-quinazolin-2-yl)-2,6-dimethyl-phenoxy]-ethyl 4-(2-oxo-3-nitroxymethyl-1,2,5-oxadiazol-3-methyl)oxy-4-oxo-butyrate [Compound H111]”, the “time after administration at which serum NO level rose to its maximum, then decreased” value in series [1] is on record as 1 h. For the same compound, the “release of prototype compound H130 after administration” value (“release of prototype compound H130” below) in series [2] is “can be rapidly released”. For the same compound, the “AUCRatio (Dosage Calibration)” value in series [2] (iv, 1 mg/kg) worked out at 54.9%. Moreover, in series [2] (po, 5 mg/kg), the “AUCRatio (Dosage Calibration)” value stood at 41.8%. In series [3], the “Upregulation of Apoa-I Mrna Level” value is “Active”. Also, in series [4], the “Amount of Released No” value came to 52.12 µM. Moreover, in series [5], the “Aorta eNOS” value is reported as 127%, the ApoA1 came to 118%, the “Heart eNOS” value was 145% and the “Serum NO” value worked out at 134%. Also, in series [5], the “Serum eNOS” value is recorded as 132%, the HDL-C was 83 ± 13 mg/dL, the LDL-C was 296 ± 29 mg/dL and the TC is 1021 ± 57 mg/dL.
In the case of `COc1cc(OC)c2c(=O)[nH]c(-c3cc(C)c(OCCOC(=O)OC4COC5C(O[N+](=O)[O-])COC45)c(C)c3)nc2c1` (stereo not drawn) [Compound H119, 2-[4-(5,7-dimethoxy-4-oxo-3,4-dihydro-quinazolin-2-yl)-2,6-dimethyl-phenoxy]-ethyl (6-nitroxy-hexahydrofuro[3,2-b]furan-3-yl)-carbonate], the “time after administration at which serum NO level rose to its maximum, then decreased” value in series [1] worked out at 1 h. For the same compound, the “release of prototype compound H130” value in series [2] is recorded as “can be rapidly released”. Further, the “AUCRatio (Dosage Calibration)” value in series [2] (iv, 1 mg/kg) amounted to 55.6%. The “AUCRatio (Dosage Calibration)” value in series [2] (po, 5 mg/kg) stood at 0.84%. Moreover, in series [3], the “Upregulation of Apoa-I Mrna Level” value is “Active”. Moreover, in series [4], the “Amount of Released No” value was 1.24 µM. Moreover, in series [5], the “Aorta eNOS” value is reported as 124%, the ApoA1 was determined as 114%, the “Heart eNOS” value was determined as 138% and the “Serum NO” value is reported as 127%. Also, in series [5], the “Serum eNOS” value came out at 126%, the HDL-C came to 88 ± 14 mg/dL, the LDL-C turned out to be 308 ± 35 mg/dL and the TC came out at 994 ± 85 mg/dL.
As to `COc1cc(OC)c2c(=O)[nH]c(-c3cc(C)c(OCCO[N+](=O)[O-])c(C)c3)nc2c1` [Compound H101, 2-(4-(2-nitrooxy-ethoxy)-3,5-dimethylphenyl)-5,7-dimethoxyquinazolin-4(3H)-one], the “time after administration at which serum NO level rose to its maximum, then decreased” value in series [1] is recorded as 2 h. For the same compound, the “AUCRatio (Dosage Calibration)” value in series [2] (SD, iv, 1 mg/kg) is on record as 37.7%. For the same compound, the “AUCRatio (Dosage Calibration)” value in series [2] (SD, po, 5 mg/kg) came to 42.4%. For the same compound, the “release of prototype compound H130” value in series [2] is “can be rapidly released”. Also, in series [3], the “Upregulation of Apoa-I Mrna Level” value was “Active”. Also, in series [4], the “Amount of Released No” value was found to be 5.97 µM. In series [5], the “Aorta eNOS” value was 132%, the ApoA1 is 126%, the “Heart eNOS” value was determined as 135% and the “Serum NO” value turned out to be 126%. Also, in series [5], the “Serum eNOS” value stood at 128%, the HDL-C worked out at 78 ± 9 mg/dL, the LDL-C amounted to 273 ± 38 mg/dL and the TC worked out at 985 ± 68 mg/dL.
